Where “and” joins values, the source holds several entries; their conditions need not be identical. Identical values can stand only once. Calls of active or inactive are those of the source.
Experiments:
Cytochrome P450 2D6 = Cytochrome P450 2D6 (Homo sapiens, UniProt P10635);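 further: CYP2D6 member of a cytochrome P450 panel assay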
Cytochrome P450 1A2 = target: T1, Cytochrome P450 1A2 (Homo sapiens, UniProt P05177);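 further: PubChem cytochrome P450 panel assay, CYP1A2 panel member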
T1 sequence (P05177 whole entry): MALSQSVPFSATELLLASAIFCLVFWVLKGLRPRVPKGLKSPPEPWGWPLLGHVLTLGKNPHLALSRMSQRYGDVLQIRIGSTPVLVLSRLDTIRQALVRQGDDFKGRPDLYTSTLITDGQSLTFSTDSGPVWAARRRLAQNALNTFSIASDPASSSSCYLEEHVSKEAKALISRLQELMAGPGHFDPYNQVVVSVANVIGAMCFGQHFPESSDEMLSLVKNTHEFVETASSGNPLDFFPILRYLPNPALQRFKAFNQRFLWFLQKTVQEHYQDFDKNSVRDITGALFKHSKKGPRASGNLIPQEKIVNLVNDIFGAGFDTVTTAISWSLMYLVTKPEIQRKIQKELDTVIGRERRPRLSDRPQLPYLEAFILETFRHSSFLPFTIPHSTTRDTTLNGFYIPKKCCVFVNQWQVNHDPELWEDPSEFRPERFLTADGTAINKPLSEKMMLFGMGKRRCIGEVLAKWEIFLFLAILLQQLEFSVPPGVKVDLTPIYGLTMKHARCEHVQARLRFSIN

[1] = target: T2, Heat shock factor protein 1 (Mus musculus, UniProt P38532); test: HSF1 potentiators in luciferase reporter cells, confirmation, cell-based, NIH3T3, luminescence, dose retest (AID 435004); format: functional;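 further: stress induced by proteasome inhibitor MG132 added 30 min after compound; luciferase reporter driven by HSF1 response element in NIH3T3 cells; actives raise luminescence as potentiators of the MG132 stress response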
T2 sequence (P38532 whole entry): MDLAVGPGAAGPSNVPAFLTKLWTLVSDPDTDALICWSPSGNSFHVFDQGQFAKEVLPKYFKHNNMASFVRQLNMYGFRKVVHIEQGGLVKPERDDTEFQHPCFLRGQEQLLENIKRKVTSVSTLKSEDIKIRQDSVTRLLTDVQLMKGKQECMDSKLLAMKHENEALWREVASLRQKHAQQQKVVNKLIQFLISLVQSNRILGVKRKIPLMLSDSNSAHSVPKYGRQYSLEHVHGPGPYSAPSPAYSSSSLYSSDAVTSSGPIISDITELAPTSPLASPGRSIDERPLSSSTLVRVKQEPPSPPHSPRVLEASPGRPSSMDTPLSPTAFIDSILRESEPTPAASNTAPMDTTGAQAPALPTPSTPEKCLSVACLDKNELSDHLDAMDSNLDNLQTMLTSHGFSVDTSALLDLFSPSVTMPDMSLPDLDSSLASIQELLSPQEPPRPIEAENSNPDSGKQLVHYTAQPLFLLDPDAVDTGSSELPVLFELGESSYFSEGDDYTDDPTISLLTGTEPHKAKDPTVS

Cytochrome P450 2C19 = Cytochrome P450 2C19 (Homo sapiens, UniProt P33261); test: Cytochrome panel assay with activity outcomes. Panel member name: p450-cyp2c19 Compounds with AC50 equal or less than 10 uM are considered active; format: functional
Cytochrome P450 2C19, sequence (P33261 whole entry): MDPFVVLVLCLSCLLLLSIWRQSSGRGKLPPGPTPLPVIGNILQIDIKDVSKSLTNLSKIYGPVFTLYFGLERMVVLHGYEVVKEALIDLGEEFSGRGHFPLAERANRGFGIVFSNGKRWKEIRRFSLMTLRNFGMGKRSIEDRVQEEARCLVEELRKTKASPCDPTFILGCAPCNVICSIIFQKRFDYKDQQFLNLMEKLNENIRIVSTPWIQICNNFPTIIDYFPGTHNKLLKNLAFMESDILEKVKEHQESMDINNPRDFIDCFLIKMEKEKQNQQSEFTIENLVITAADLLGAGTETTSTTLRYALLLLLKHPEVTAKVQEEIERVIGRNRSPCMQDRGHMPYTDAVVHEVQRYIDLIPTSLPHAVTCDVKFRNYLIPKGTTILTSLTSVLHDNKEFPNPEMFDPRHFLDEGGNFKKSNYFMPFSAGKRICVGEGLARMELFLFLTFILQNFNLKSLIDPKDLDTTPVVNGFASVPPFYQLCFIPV

H4 = test: Luminescence Cell-Based Dose Response HTS to Identify Activators of 5'UTR Stem-Loop Driven Prion Protein mRNA Translation in H4 Neuroglioblastoma Cells. [Related pubchem assays: 1829 (Project Summary), 1814 (Primary HTS)]; format: functional; conditions: Homo sapiens
[2] = Luminescence Cell-Based Dose Response HTS to Identify Activators of Luciferase Translation or Activity in H4 […] Cells. [Related pubchem assays: 1829 (Project Summary), 1814 (Primary HTS)]; format: functional
[3] = Luminescence Cell-Based Dose Confirmation HTS to Identify Activators of 5'UTR Stem-Loop Driven Alpha-Synuclein mRNA Translation in H4 Neuroglioblastoma Cells. [Related pubchem assays: 1829 (Project Summary), 1814 (Primary HTS)]; format: functional
H9c2 = test: cells; format: functional, cell-based; conditions: Rattus norvegicus, H9c2, Myocardium
Cytochrome P450 3A4 = Cytochrome P450 3A4 (Homo sapiens, UniProt P08684);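 further: CYP3A4 tested as one member of a cytochrome P450 panel screen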
Cytochrome P450 3A4, sequence (P08684 whole entry): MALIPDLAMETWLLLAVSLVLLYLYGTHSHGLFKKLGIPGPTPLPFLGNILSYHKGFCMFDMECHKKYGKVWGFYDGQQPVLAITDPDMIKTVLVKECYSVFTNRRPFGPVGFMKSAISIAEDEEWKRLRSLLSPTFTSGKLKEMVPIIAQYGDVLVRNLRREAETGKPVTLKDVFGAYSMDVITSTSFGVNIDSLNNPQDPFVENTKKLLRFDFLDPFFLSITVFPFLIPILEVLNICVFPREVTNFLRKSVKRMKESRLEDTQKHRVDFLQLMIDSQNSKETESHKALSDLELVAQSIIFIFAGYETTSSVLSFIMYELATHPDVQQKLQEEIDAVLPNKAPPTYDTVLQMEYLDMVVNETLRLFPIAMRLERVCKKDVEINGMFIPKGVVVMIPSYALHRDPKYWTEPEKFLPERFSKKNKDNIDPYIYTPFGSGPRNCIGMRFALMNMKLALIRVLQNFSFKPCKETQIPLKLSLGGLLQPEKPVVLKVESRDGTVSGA
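Wherever IC50 is given: confirmatory concentration-response retest of ultra-high-throughput screening hits for modulation of myocardial damage; cell death induced by hydrogen peroxide oxidative stress; compound pretreatment for 60 min then peroxide exposure for 2 h; potency is for protecting the cells against peroxide damage rather than for killing them.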

Cytochrome P450 2D6, sequence (P10635 whole entry): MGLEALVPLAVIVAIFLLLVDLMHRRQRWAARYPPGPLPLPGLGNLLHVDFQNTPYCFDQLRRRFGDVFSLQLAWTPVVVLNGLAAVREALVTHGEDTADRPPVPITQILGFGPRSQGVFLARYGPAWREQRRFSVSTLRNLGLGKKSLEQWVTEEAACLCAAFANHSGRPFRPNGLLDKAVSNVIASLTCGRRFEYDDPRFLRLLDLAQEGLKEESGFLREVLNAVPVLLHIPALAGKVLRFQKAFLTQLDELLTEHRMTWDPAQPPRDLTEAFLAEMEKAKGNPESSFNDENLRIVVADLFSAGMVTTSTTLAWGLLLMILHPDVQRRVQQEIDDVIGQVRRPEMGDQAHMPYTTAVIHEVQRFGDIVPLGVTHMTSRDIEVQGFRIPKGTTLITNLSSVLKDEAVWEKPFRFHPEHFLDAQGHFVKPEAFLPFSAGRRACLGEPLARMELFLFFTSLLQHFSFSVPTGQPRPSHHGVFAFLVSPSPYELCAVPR

## COc1ncc2nc(-c3cccc(C#N)c3)c(=O)n(CCC#N)c2n1
Cytochrome P450 2D6
  AC50: 15.8 µM (inconclusive)
Cytochrome P450 1A2
  AC50: 20 µM (inconclusive)

## CCOc1ccc(-n2cc(C(=O)N3CCC(C)CC3)c3cc(OC)c(OC)cc3c2=O)cc1
[1]
  EC50: > 260 µM (inactive)

## Cc1cccc(NC(=O)CSc2nc(O)c3c(C)cc(C)nc3n2)c1
Cytochrome P450 2D6
  AC50: 15.8 µM (inconclusive)

## CC[N+](C)(CC)CCN1C(=O)c2ccccc2S1(=O)=O
Cytochrome P450 2C19
  AC50: inconclusive

## O=[N+]([O-])c1cccc(/C=N/N2CCN(Cc3ccccc3)CC2)c1
H4
  EC50: 20.2 µM (active)
[2]
  EC50: 20.8 µM (active)
[3]
  EC50: 14.7 µM (active)

## CCOC(=O)c1cnc(-c2ccccc2)nc1Oc1ccc(C)cc1
[1]
  EC50: > 260 µM (inactive)

## O=S(=O)(N/N=C\c1cccn1-c1ccccc1)c1ccc2ccccc2c1
Cytochrome P450 2C19; read-out: AC50
  AC50: 0.794 µM (inconclusive)

## O=C1/C(=C\c2ccc(Br)o2)S/C(=N/c2ccccc2)N1c1ccccc1
Cytochrome P450 2C19; read-out: AC50
  AC50: 7.94 µM (inconclusive)

## COc1ccccc1NC(=O)COc1ccc(/C=N/NC(=O)c2cccnc2)cc1
H9c2
  IC50: 17.2 µM (active)

## O=C(Nc1ccccc1)N[C@H]1C[C@H](C(=O)O)Nc2cc(Cl)cc(Cl)c21
Cytochrome P450 1A2
  AC50: 39.8 µM (inconclusive)
Cytochrome P450 3A4
  AC50: 25.1 µM (inconclusive)
Cytochrome P450 2C19; read-out: AC50
  AC50: 25.1 µM (inconclusive)

## COC(=O)c1cc(S(=O)(=O)N2CCN(c3ccc([N+](=O)[O-])cc3)CC2)c[nH]1
[1]
  EC50: > 260 µM (inactive)

## COC(=O)c1ccc(N(CC(=O)NC2CCCCC2)C(=O)CNC(=O)c2ccco2)cc1
[1]
  EC50: > 260 µM (inactive)

## CCN(CC)CCNC(=O)c1cc(S(C)(=O)=O)ccc1OC [TIAPRIDE]
Cytochrome P450 2D6
  AC50: 7.94 µM (inconclusive) and 31.6 µM (inconclusive)

## COc1cc2c(cc1NC(=O)CSc1nccn1C)oc1ccccc12
H4
  EC50: 27.6 µM (active)
[2]
  EC50: 7.9 µM (active)
[3]
  EC50: 13 µM (active)

## Cc1ccc(S(=O)(=O)N(C)C)cc1NC(=O)COC(=O)c1c(C)noc1C
[1]
  EC50: > 260 µM (inactive)

## CC(C)C(=O)Nc1ccc(NC(=O)c2cccnc2)cn1
Cytochrome P450 2C19; read-out: AC50
  AC50: 7.08 µM (inconclusive)

## CC1SCC(=NOCc2ccccc2)CS1 (configuration not stated)
H4
  EC50: 18.2 µM (active)
[2]
  EC50: 17.7 µM (active)
[3]
  EC50: 14.5 µM (active)

## COc1cc(/C=N/N2C(=O)c3ccccc3NC2(C)c2cccc([N+](=O)[O-])c2)cc(Br)c1O (configuration not stated)
[1]
  EC50: 34.1 µM (active)

## Cc1cc(SCC(=O)NCCN2C(=O)CSC2=O)nc2ccccc12
H4
  EC50: > 120 µM (not active)
[2]
  EC50: > 120 µM (not active)
[3]
  EC50: > 120 µM (not active)

## N[C@@H](CSS(=O)(=O)O)C(=O)O
Cytochrome P450 1A2
  AC50: 39.8 µM (inconclusive)
Cytochrome P450 2C19; read-out: AC50
  AC50: 7.94 µM (inconclusive)

## COc1ccc(C=CC(=O)c2ccc3cc(OC)c(OC)cc3c2)cc1OC
H9c2
  IC50: > 79 µM (inactive)

## Cc1nn(CCOc2ccccc2)c(=O)n1-c1c(F)cccc1F
H4
  EC50: 32.2 µM (active)
[2]
  EC50: > 120 µM (not active)
[3]
  EC50: 15.3 µM (active)

## CCCN1CCC(=NNc2ccc(C(=O)O)cc2)CC1
H4
  EC50: 10.7 µM (active)
[2]
  EC50: 30.4 µM (active)
[3]
  EC50: 7.27 µM (active)

## O=C(CSc1nn(-c2ccc(F)cc2)c(=S)s1)N1CCN(C(=O)c2ccco2)CC1
[1]
  EC50: > 260 µM (inactive)

## COc1cccc(C2C(C(N)=O)=C(C)Nc3nc(-c4cccc(Cl)c4)nn32)c1 (configuration not stated)
[1]
  EC50: 71.9 µM (active)

## COc1ccc2[nH]cc(CCNc3nc(-c4ccccc4CN(C)C)nc4ccccc34)c2c1
Cytochrome P450 2D6
  AC50: 31.6 µM (inconclusive)
Cytochrome P450 1A2
  AC50: 25.1 µM (inconclusive)
Cytochrome P450 3A4
  AC50: 2 µM (inconclusive)

## CCn1ncc2c1C(=O)NC1c3ccccc3C(=O)N21 (configuration not stated)
H9c2
  IC50: 32 µM (inactive)

## O=C1[C@H]2[C@@H](c3ccc(C(F)(F)F)cc3)N[C@]3(CCCN(Cc4ccc(F)cc4)C3=O)[C@H]2C(=O)N1Cc1ccccc1
H9c2
  IC50: > 79 µM (inactive)

## Cc1nc(SCC(=O)N2CCN(c3ccccc3)CC2)c2oc3ccccc3c2n1
H9c2
  IC50: > 79 µM (inactive)

## CC(OC(=O)/C=C/c1ccc2ccccc2n1)C(=O)NCc1ccccc1 (configuration not stated)
[1]
  EC50: 13.3 µM (active)

## CC(OC(=O)CCc1nc(O)c2ccccc2n1)C(=O)Nc1ccc2c(c1)OCO2 (configuration not stated)
H9c2
  IC50: 39.1 µM (inactive)

## Cc1ccc(/C=C/C(=O)Nc2ccc(S(=O)(=O)Nc3cc(C)nc(C)n3)cc2)cc1
[1]
  EC50: > 260 µM (inactive)

## CC(C(=O)NC1CCCC1)N(C(=O)Cn1nnc(-c2ccc(F)cc2)n1)c1ccccc1F (configuration not stated)
H9c2
  IC50: > 79 µM (inactive)

## CC(C)(C)c1ccc(C(=O)NC(=S)Nn2cnnc2)cc1
H4
  EC50: 30.1 µM (active)
[2]
  EC50: 69.9 µM (active)
[3]
  EC50: > 120 µM (not active)

## C/C(=N\O)c1cccc[n+]1Cc1ccccc1
Cytochrome P450 2D6
  AC50: 3.98 µM (inconclusive)
Cytochrome P450 2C19; read-out: AC50
  AC50: 0.1 µM (inconclusive)

## CC(C)C(=O)N1CCN(c2ccccc2NC(=O)c2cccc(Cl)c2)CC1
Cytochrome P450 2D6
  AC50: 15.8 µM (inconclusive)
Cytochrome P450 1A2
  AC50: 20 µM (inconclusive)
Cytochrome P450 3A4
  AC50: 12.6 µM (inconclusive)

## COc1cccc(-c2ccc3ncnc(NCCNC(C)=O)c3c2)c1
Cytochrome P450 2D6
  AC50: 39.8 µM (inconclusive)

## CC1(C)Cc2nc(NCCN3CCOCC3)c(C#N)cc2CO1
[1]
  EC50: > 260 µM (inactive)

## O=[N+]([O-])c1ccc(N/N=C2\CC3CC=CC23)cc1 (configuration not stated)
H4
  EC50: 24.3 µM (active)
[2]
  EC50: 13.2 µM (active)
[3]
  EC50: 15.2 µM (active)

## C=CCN1C(=O)NC(=O)/C(=C(/CC)Nc2ccc3c(c2)CCC3)C1=O
[1]
  EC50: > 260 µM (inactive)

## COC(=O)c1ccc(/N=C/c2c(C(F)(F)F)n[nH]c2O)cc1
H4
  EC50: > 120 µM (not active)
[2]
  EC50: > 120 µM (not active)
[3]
  EC50: > 120 µM (not active)

## CC(C)NC(=O)N1CC2(CCN(C(=O)c3ccco3)CC2)C1
Cytochrome P450 2D6
  AC50: 12.6 µM (inconclusive)

## CN(CC(=O)Nc1ccccc1Br)C(=O)Cn1[nH]c(=O)c2ccccc2c1=O
H9c2
  IC50: > 79 µM (inactive)

## O=C(CSC1CC(=O)N(CC(c2ccccc2)c2ccccc2)C1=O)Nc1ccc(Cl)cc1 (configuration not stated)
Cytochrome P450 2D6
  AC50: 2 µM (inconclusive)
Cytochrome P450 1A2
  AC50: 35.5 µM (inconclusive)

## Cc1cc(NC(=O)NC(=O)c2ccccc2)no1
H4
  EC50: 42.3 µM (inconclusive)
[2]
  EC50: 7.68 µM (active)
[3]
  EC50: 3.66 µM (active)

## COc1cccc(NC(=O)CN(C)C(=O)Cc2nnc(O)c3ccccc23)c1
H9c2
  IC50: > 79 µM (inactive)

## O=[N+]([O-])c1ccc(S(=O)(=O)Cc2ccccc2)c2nonc12
Cytochrome P450 2D6
  AC50: 6.31 µM (inconclusive)

## CCN(CC)CCNC(=O)CCc1nnc(O)c2ccccc12
H9c2
  IC50: > 79 µM (inactive)

## CC(C)c1ccc(N2C(=O)[C@@H]3Cc4ccccc4CN3C2=O)cc1
H4
  EC50: > 120 µM (not active)
[2]
  EC50: 45 µM (active)
[3]
  EC50: > 120 µM (not active)

## Cc1ccc(C(=O)NC2CCCN(c3ccc(C(F)(F)F)cn3)C2)cn1 (configuration not stated)
[1]
  EC50: > 260 µM (inactive)

## COc1ccc(-c2cn3c(C)c(C(=O)NC(C)(C)C)sc3n2)cc1
H4
  EC50: > 120 µM (not active)
[2]
  EC50: 31.5 µM (active)
[3]
  EC50: 1.06 µM (active)

## COc1cc2[nH]c(C(=O)Nc3ccc(F)cc3)cc2c(OC)c1OC
H4
  EC50: > 120 µM (not active)
[2]
  EC50: 9.27 µM (active)
[3]
  EC50: > 120 µM (not active)

## O=C(/C=C/c1ccc(Cl)cc1)NCCN1CCOCC1
Cytochrome P450 2C19
  AC50: inconclusive

## COCCNc1ncnc2ccc(-c3cccc(OC)c3)cc12
Cytochrome P450 2D6
  AC50: 39.8 µM (inconclusive)
Cytochrome P450 2C19; read-out: AC50
  AC50: 2.51 µM (inconclusive)

## CN1CCN(CC(=O)N2c3ccccc3Sc3cc4ccccc4cc32)CC1
Cytochrome P450 2D6
  AC50: 3.16 µM (inconclusive)
Cytochrome P450 3A4
  AC50: 3.98 µM (inconclusive)

## CN1CCN(c2ncncc2-c2cccnc2)CC1
Cytochrome P450 2D6
  AC50: 2.51 µM (inconclusive)
Cytochrome P450 1A2
  AC50: 25.1 µM (inconclusive)
Cytochrome P450 3A4
  AC50: 12.6 µM (inconclusive)

## COC(=O)c1ccccc1S(=O)(=O)N(Cc1ccco1)Cc1cc2cc(OC)ccc2nc1O
H9c2
  IC50: > 79 µM (inactive)

From ChEMBL document CHEMBL1201862, “PubChem BioAssay data set” (2004)
